According to patent publication US8569336B2, “Compounds for the treatment of inflammatory disorders” (priority 2008, dated 2013):
Where two headings read alike, the source gives them in different places.

Columns and labels:
[1] = Area under the curve determinations of plasma levels in rats (rrAUC), oral 10 mg/kg; type: in vivo; conditions: rat, plasma 0.5-6 h, read-out: RR AUC (rapid rat AUC, rrAUC)
[2] = target: T1, purified catalytic domain of recombinant human TACE (rhTACEc) (Homo sapiens, UniProt P78536, N452Q/S266A); test: TACE kinetic assay: cleavage of internally quenched peptide substrate TNF-FRET 2 (Ki); type: biochemical; conditions: TNF-FRET 2 substrate
T1 construct: 6xHis (C); made in house; host or cells: baculovirus/Hi5 insect cells
T1 sequence (P78536 215-477 S266A/N452Q): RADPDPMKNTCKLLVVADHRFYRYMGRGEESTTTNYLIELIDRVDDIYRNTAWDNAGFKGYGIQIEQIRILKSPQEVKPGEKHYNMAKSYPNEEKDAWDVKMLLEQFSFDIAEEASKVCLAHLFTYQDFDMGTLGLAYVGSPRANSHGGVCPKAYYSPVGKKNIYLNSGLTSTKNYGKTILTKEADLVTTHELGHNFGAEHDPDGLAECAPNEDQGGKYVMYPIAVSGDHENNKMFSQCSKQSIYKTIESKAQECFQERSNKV

[3] = tested on: TNF-α production from human whole blood; test: Inhibition of TNF-α production from human whole blood (hWBA), LPS stimulated, ELISA; type: cell-based; conditions: Homo sapiens, human whole blood diluted 1:1, LPS stimulated, TNF-α by ELISA; read-out: hWBA (IC50)

Row | Structure (SMILES) | AUC [1] [µM·h] | Ki ([2]; read-out: Ki) [nM] | IC50 [3] [nM] | Ki ([2]; Ki) [nM]
1 | COc1ccc2c(c1F)C(=O)N(C[C@@]1(c3cc4cc5c(c(-c6cccnc6)c4o3)C(=O)NC5)NC(=O)NC1=O)C2 [Compound 1310] | 0.614 | – | – | –
2 | COc1ccc2c(c1)C(=O)N(C[C@@]1(c3cc4cc(/C=N/O)ccc4o3)NC(=O)NC1=O)C2 [Compound 2420] | – | 0.4 | 328 | –
3 | COc1ccc2c(c1)C(=O)N(C[C@@]1(c3cc4ccc(C(=O)N5CCNC(=O)C5)cc4o3)NC(=O)NC1=O)C2 [Compound 2422] | – | – | 519 | 0.68
4 | COc1ccc2c(c1)C(=O)N(C[C@@]1(c3cc4ccc(C(=O)N5CCN(C)CC5)cc4o3)NC(=O)NC1=O)C2 [Compound 2423] | – | 1.01 | 1090 | –
5 | COc1ccc2c(c1)C(=O)N(C[C@@]1(c3cc4cc(C(N)=O)c(C)cc4o3)NC(=O)NC1=O)C2 [Compound 2425] | – | 0.51 | 992 | –
6 | COc1ccc2c(c1)C(=O)N(C[C@@]1(c3cc4cc(C(=O)N5CCN(C)CC5)c(C)cc4o3)NC(=O)NC1=O)C2 [Compound 2427] | – | 1.42 | 560 | –
7 | COc1ccc2c(c1)C(=O)N(C[C@@]1(c3cc4cc(C(=O)NCCN(C)C)ccc4o3)NC(=O)NC1=O)C2 [Compound 2428] | – | 0.75 | 115 | –
8 | COc1ccc2c(c1)C(=O)N(C[C@@]1(c3cc4c(-c5cccc(C#N)c5)nccc4o3)NC(=O)NC1=O)C2 [Compound 2430] | – | 0.72 | 10000 | –
9 | COc1ccc2c(c1)C(=O)N(C[C@@]1(c3cc4cc(-c5cccc(C#N)c5)ncc4o3)NC(=O)NC1=O)C2 [Compound 2432] | – | 0.92 | 1720 | –
10 | COc1ccc2c(c1)C(=O)N(C[C@@]1(c3cc4cc(C(C)=O)cnc4o3)NC(=O)NC1=O)C2 [Compound 2433] | – | 0.731 | 712 | –
11 | CCOC(=O)c1c(O)nc(C)c2cc([C@]3(CN4Cc5ccc(OC)cc5C4=O)NC(=O)NC3=O)oc12 [Compound 2434] | – | 1.32 | 174 | –
12 | COc1ccc2c(c1)C(=O)N(C[C@@]1(c3cc4c(C)nc(O)c(C(N)=O)c4o3)NC(=O)NC1=O)C2 [Compound 2435] | – | 1.14 | 504 | –
13 | COc1ccc2c(c1)C(=O)N(C[C@@]1(c3cc4c(C)nc(O)c(C(=O)O)c4o3)NC(=O)NC1=O)C2 [Compound 2436] | – | – | 2390 | 2.41
14 | COc1ccc2c(c1)C(=O)N(C[C@@]1(c3cc4c(C)ncc(C(=O)O)c4o3)NC(=O)NC1=O)C2 [Compound 2446] | – | 2.26 | 1600 | –
15 | CNC(=O)c1cnc(C)c2cc([C@]3(CN4Cc5ccc(OC)cc5C4=O)NC(=O)NC3=O)oc12 [Compound 2447] | – | 0.54 | 554 | –
16 | COc1ccc2c(c1)C(=O)N(C[C@@]1(c3cc4c(C(C)=O)nccc4o3)NC(=O)NC1=O)C2 [Compound 2448] | – | 0.8 | 839 | –
17 | COc1ccc2c(c1)C(=O)N(C[C@@]1(c3cc4cc(C=O)ccc4o3)NC(=O)NC1=O)C2 [Compound 2451] | – | 0.41 | 987 | –
18 | COc1ccc2c(c1)C(=O)N(C[C@@]1(c3cc4cc(C(=NO)N5CCCN(C)CC5)ccc4o3)NC(=O)NC1=O)C2 [Compound 2452] | – | 0.67 | 350 | –
19 | CCN1CCN(C(=NO)c2ccc3oc([C@]4(CN5Cc6ccc(OC)cc6C5=O)NC(=O)NC4=O)cc3c2)CC1 [Compound 2453] | – | 0.51 | 393 | –
20 | COc1ccc2c(c1)C(=O)N(C[C@@]1(c3cc4cc(C(=NO)N5CCOCC5)ccc4o3)NC(=O)NC1=O)C2 [Compound 2454] | – | 0.49 | 760 | –
21 | COc1ccc2c(c1)C(=O)N(C[C@@]1(c3ccc(-c4ccc(C(=NO)N5CCN(C)CC5)cc4)cc3)NC(=O)NC1=O)C2 [Compound 2456] | – | 0.76 | 1010 | –
22 | COC(=O)c1cnc2cc([C@]3(CN4Cc5ccc(OC)cc5C4=O)NC(=O)NC3=O)oc2c1 [Compound 2458] | – | 0.518 | 841 | –
23 | COc1ccc2c(c1)C(=O)N(C[C@@]1(c3cc4ncc(C(N)=O)cc4o3)NC(=O)NC1=O)C2 [Compound 2459] | – | – | 173 | 0.367
24 | COc1ccc2c(c1)C(=O)N(C[C@@]1(c3cc4ncc(C(=O)NC5CC5)cc4o3)NC(=O)NC1=O)C2 [Compound 2460] | – | 0.556 | 321 | –
25 | COC(=O)c1ccc2oc([C@]3(CN4Cc5ccc(OC)cc5C4=O)NC(=O)NC3=O)cc2n1 [Compound 2463] | – | 0.13 | 339 | –

Row | Structure (SMILES) | AUC [1] [µM·h] | Ki ([2]; read-out: Ki) [nM] | IC50 [3] [nM] | Ki ([2]; Ki) [nM]
26 | COc1ccc2c(c1)C(=O)N(C[C@@]1(c3cc4nc(C(=O)NC5CC5)ccc4o3)NC(=O)NC1=O)C2 [Compound 2464] | – | 0.115 | 367 | –
27 | COc1ccc2c(c1)C(=O)N(C[C@@]1(c3cc4nc(C(=O)NCCN(C)C)ccc4o3)NC(=O)NC1=O)C2 [Compound 2466] | – | 0.867 | 567 | –
28 | COCCNC(=O)c1cnc2cc([C@]3(CN4Cc5ccc(OC)cc5C4=O)NC(=O)NC3=O)oc2c1 [Compound 2467] | – | 0.72 | 657 | –
29 | CCN1CCN(C(=NO)c2cnc3cc([C@]4(CN5Cc6ccc(OC)cc6C5=O)NC(=O)NC4=O)oc3c2)CC1 [Compound 2468] | – | – | 342 | 1.44
30 | COc1ccc2c(c1)C(=O)N(C[C@@]1(c3cc4ncc(C(=NO)N5CCN(c6cnccn6)CC5)cc4o3)NC(=O)NC1=O)C2 [Compound 2469] | – | 0.59 | 546 | –
31 | COc1ccc2c(c1)C(=O)N(C[C@@]1(c3cc4nc(-c5cncc(C#N)c5)ccc4o3)NC(=O)NC1=O)C2 [Compound 2471] | – | 0.779 | 3660 | –
32 | COc1ccc2c(c1)C(=O)N(C[C@@]1(c3cc4cc(C#N)ccc4o3)NC(=O)NC1=O)C2 [Compound 2476] | – | 0.37 | 848 | –
33 | COc1ccc2c(c1)C(=O)N(C[C@@]1(c3ccc(C#N)cc3)NC(=O)NC1=O)C2 [Compound 2477] | – | 1.41 | 3480 | –
34 | COc1ccc2c(c1)C(=O)N(C[C@@]1(c3cc4cc(S(N)(=O)=O)ccc4o3)NC(=O)NC1=O)C2 [Compound 2478] | – | 0.35 | 600 | –
35 | COc1ccc2c(c1)C(=O)N(C[C@@]1(c3cc4cc(C)c(S(N)(=O)=O)cc4o3)NC(=O)NC1=O)C2 [Compound 2479] | – | 0.36 | 2080 | –
36 | COc1ccc2c(c1)C(=O)N(C[C@@]1(c3cc4cc(S(=O)(=O)NCCN(C)C)ccc4o3)NC(=O)NC1=O)C2 [Compound 2482] | – | 0.67 | 304 | –
37 | COc1ccc2c(c1)C(=O)N(C[C@@]1(c3cc4c(o3)CCN(CC(N)=O)C4)NC(=O)NC1=O)C2 [Compound 2483] | – | – | 252 | 0.7
38 | CCOC(=O)NCc1ccc2oc([C@]3(CN4Cc5ccc(OC)cc5C4=O)NC(=O)NC3=O)cc2c1 [Compound 2484] | – | – | 1690 | 0.49
39 | CCNC(=O)NCc1ccc2oc([C@]3(CN4Cc5ccc(OC)cc5C4=O)NC(=O)NC3=O)cc2c1 [Compound 2485] | – | 0.76 | 1990 | –
40 | COc1ccc2c(c1)C(=O)N(C[C@@]1(c3cc4cc(CNC(=O)N(C)C)ccc4o3)NC(=O)NC1=O)C2 [Compound 2486] | – | 0.49 | 1230 | –
41 | COc1ccc2c(c1)C(=O)N(C[C@@]1(c3cc4cc(/C(=N\O)N5CC[C@H](N(C)C)C5)ccc4o3)NC(=O)NC1=O)C2 [Compound 2488] | – | 0.8 | 321 | –
42 | O=C1NC(=O)[C@](CN2Cc3ccc(OCC4CC4)c(F)c3C2=O)(c2cc3cc4c(c(F)c3o2)C(=O)NC4)N1 [Compound 2493] | – | 0.49 | 349 | –
43 | O=C1NC(=O)[C@](CN2CCc3ccsc3C2=O)(c2cc3ncccc3o2)N1 [Compound 2494] | – | 1.25 | 2250 | –
44 | CN(C)C1CCN(c2ccc3oc(C4(CN5CCc6ccsc6C5=O)NC(=O)NC4=O)cc3n2)CC1 (stereo not shown) [Compound 2495] | – | 0.71 | 650 | –
45 | CCN1CCN(c2ccc3oc(C4(CN5CCc6ccsc6C5=O)NC(=O)NC4=O)cc3n2)CC1 (stereo not shown) [Compound 2496] | – | 0.66 | 314 | –
46 | COc1ccc2c(c1F)C(=O)N(C[C@@]1(c3cc4ccc5c(c4o3)CNC5=O)NC(=O)NC1=O)C2 [Compound 2498] | – | 1.21 | 166 | –
47 | COc1ccc2c(c1F)C(=O)N(C[C@@]1(c3cc4cc5c(c(F)c4o3)CNC5=O)NC(=O)NC1=O)C2 [Compound 2500] | – | 0.52 | 282 | –
48 | COc1ccc2c(c1)C(=O)N(C[C@@]1(c3cc4cc5c(cc4o3)[C@@H](NC(=O)OC(C)(C)C)CC5)NC(=O)NC1=O)C2 [Compound 2507] | – | 1.43 | 4160 | –
49 | COc1ccc2c(c1)C(=O)N(C[C@@]1(c3cc4cc5c(cc4o3)[C@@H](N)CC5)NC(=O)NC1=O)C2 [Compound 2508] | – | 0.52 | 1020 | –
